Measured values from patent US6534524B1, “Indazole compounds and pharmaceutical compositions for inhibiting protein kinases, and methods for their use” (Agouron Pharmaceuticals, Inc., priority 1999, dated 2003).
Read-outs that look alike come from different tables or passages of the source.

Tests used:
[1] = Human liver microsome (HLM) assay; type: in vitro ADME; settings: human liver microsomes, 5 μM test compound
Experimental: Human Liver Microsome (HLM) Assay Compound metabolism in human liver microsomes was measured by LC-MS analytical assay procedures as follows. […] (3 tubes per test compound-triplicate). […] The samples were then transferred to separate polypropylene microcentrifuge tubes and centrifuged at 14000 g for 10 min. (Fisher Micro […] M0017580). For each replicate (#1-3) at each timepoint (0 and 2 h), an aliquot sample of each test compound was combined into a single HPLC vial insert (6 total samples) for LC-MS analysis, which is described below.

[2] = Determination of inhibitor concentration in mouse plasma after intraperitoneal and oral dosing; type: in vivo; settings: for concentration at 7 h: vehicle PEG400:H2O pH 2.3 30:70, read-out: Cmin (7 hr conc.)
How it was run: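 Mice dosed intraperitoneally or orally; blood taken by ocular bleed at 0.5, 1 and 4 h and by intracardiac puncture at 7 h. Plasma extracted with ethyl acetate after internal standard and NaOH addition, analysed by HPLC or LC-MS against a mouse-plasma standard curve.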

[3] = IP, 25 mg/kg, vehicle PEG400:H2O pH 2.3 30:70
[4] = PO, 25 mg/kg, vehicle PEG400:H2O pH 2.3 30:70
[5] = PO, 50 mg/kg, vehicle PEG400:H2O pH 2.3 30:70

Structure (SMILES)	% remain (HLM, 2 h) [1]	AUClast [2, 3]	plasma half-life (T1/2) [2, 3]	AUClast [2, 4]	plasma half-life (T1/2) [2, 4]	concentration at 7 h ([2]; female, IP, 25 mg/kg)	concentration at 7 h ([2]; female, PO, 25 mg/kg)	AUClast [2, 5]	Cmax [2, 5]	concentration at 7 h ([2]; female, PO, 50 mg/kg)	AUC(0-t) ([2]; female, PO, 25 mg/kg, vehicle PEG400:H2O pH 2.3 30:70)	Cmax ([2]; female, PO, 25 mg/kg, vehicle PEG400:H2O pH 2.3 30:70, read-out: Cmax)	plasma half-life (T1/2) [2, 5]	AUC(0-t) ([2]; female, PO, 50 mg/kg, vehicle PEG400:H2O pH 2.3 30:70)	Cmax ([2]; female, PO, 50 mg/kg, vehicle PEG400:H2O pH 2.3 30:70, read-out: Cmax)
CC(C)ONC(=O)c1ccccc1Sc1ccc2c(/C=C/c3ccccn3)n[nH]c2c1 [Example 35(k), 6-[2-(Isopropoxycarbamoyl)phenylsulfanyl]-3-E-[2-(pyridin-2-yl)ethenyl]-1H-indazole]	14%	2640 ng·h/mL	1.4 h	–	–	35 ng/mL	–	5529 ng·h/mL	–	33 ng/mL	–	–	1.4 h	–	–
O=C(NOCC1CC1)c1ccccc1Sc1ccc2c(/C=C/c3ccccn3)n[nH]c2c1 [Example 35(s), 6-[2-((Cyclopropyl)methoxycarbamoyl)phenylsulfanyl]-3-E-[2-(pyridin-2-yl)ethenyl]-1H-indazole]	16%	–	–	–	2.2 h	–	86 ng/mL	–	–	–	7420 ng·h/mL	3370 ng/mL	–	–	–
O=C(NCC1CC1)c1ccccc1Sc1ccc2c(/C=C/c3ccccn3)n[nH]c2c1 [Example 35(v), 6-[2-(Cyclopropylmethyl-carbamoyl)phenylsulfanyl]-3-E-[2-(pyridin-2-yl)ethenyl]-1H-indazole]	26%	4865 ng·h/mL	0.9 h	–	–	16 ng/mL	–	–	–	26 ng/mL	–	–	1.0 h	> 2950 ng·h/mL	> 2000 ng/mL
CCNC(=O)c1ccccc1Sc1ccc2c(/C=C/c3ccccn3)n[nH]c2c1 [Example 35(x), 6-[2-(Ethylcarbamoyl)phenylsulfanyl]-3-E-[2-(pyridin-2-yl)ethenyl]-1H-indazole]	37%	951 ng·h/mL	3.2 h	–	–	48 ng/mL	–	3516 ng·h/mL	–	16 ng/mL	–	–	0.9 h	–	–
O=C(Nc1nccs1)c1ccccc1Sc1ccc2c(/C=C/c3ccccn3)n[nH]c2c1 [Example 35(y), 6-[2-(Thiazol-2-ylcarbamoyl)phenylsulfanyl]-3-E-[2-(pyridin-2-yl)ethenyl]-1H-indazole]	7%	159 ng·h/mL	1.2 h	–	–	2 ng/mL	–	58 ng·h/mL	–	1 ng/mL	–	–	1.2 h	–	–

Continued, in another order:

% remain (HLM, 2 h) [1]	AUClast [2, 3]	plasma half-life (T1/2) [2, 3]	AUClast [2, 4]	plasma half-life (T1/2) [2, 4]	concentration at 7 h ([2]; female, IP, 25 mg/kg)	concentration at 7 h ([2]; female, PO, 25 mg/kg)	AUClast [2, 5]	Cmax [2, 5]	concentration at 7 h ([2]; female, PO, 50 mg/kg)	AUC(0-t) ([2]; female, PO, 25 mg/kg, vehicle PEG400:H2O pH 2.3 30:70)	Cmax ([2]; female, PO, 25 mg/kg, vehicle PEG400:H2O pH 2.3 30:70, read-out: Cmax)	Structure (SMILES)	plasma half-life (T1/2) [2, 5]	AUC(0-t) ([2]; female, PO, 50 mg/kg, vehicle PEG400:H2O pH 2.3 30:70)	Cmax ([2]; female, PO, 50 mg/kg, vehicle PEG400:H2O pH 2.3 30:70, read-out: Cmax)
13%	546 ng·h/mL	1.5 h	157 ng·h/mL	14.6 h	2 ng/mL	9 ng/mL	–	–	–	–	–	C=C(C)CNC(=O)c1ccccc1Sc1ccc2c(/C=C/c3ccccn3)n[nH]c2c1 [Example 35(ee), 6-[2-(2-Methyl-2-propenylcarbamoyl)phenylsulfanyl]-3-E-[2-(pyridin-2-yl)ethenyl]-1H-indazole]	–	–	–
53%	–	–	231 ng·h/mL	16.1 h	–	28 ng/mL	–	–	–	–	–	COc1ccc(CNC(=O)c2ccccc2Sc2ccc3c(/C=C/c4ccccn4)n[nH]c3c2)cc1 [Example 35(g)]	–	–	–
9%	59 ng·h/mL	1.5 h	–	–	1 ng/mL	–	26 ng·h/mL	7 ng/mL	2 ng/mL	–	–	Cc1ccc(CNC(=O)c2ccccc2Sc2ccc3c(/C=C/c4ccccn4)n[nH]c3c2)o1 [Example 35(h), 6-[2-((5-Methylfur-2-yl)methylcarbamoyl)phenylsulfanyl]-3-E-[2-(pyridin-2-yl)ethenyl]-1H-indazole]	–	–	–
7%	–	–	3199 ng·h/mL	1.1 h	–	41 ng/mL	–	–	–	–	–	CCCONC(=O)c1ccccc1Sc1ccc2c(/C=C/c3ccccn3)n[nH]c2c1 [Example 35(t), 6-[2-(n-Propoxycarbamoyl)phenylsulfanyl]-3-E-[2-(pyridin-2-yl)ethenyl]-1H-indazole]	–	–	–
